By inhibition is commonly meant the relative decrease from the control value, in per cent.

The source of these data is publication PMC9295568, “Dual Inhibition of Vacuolar-ATPase and TMPRSS2 Is Required for Complete Blockade of SARS-CoV-2 Entry into Cells” (Antimicrobial Agents and Chemotherapy, 2022).

Structures can show the parent of a compound that is named as a salt. Where two headings read alike, the source gives them in different places.

The subject of the experiment is endosomal acidification in Vero cells. Briefly: cells. It is filed as cell-based. The note with it: for inhibition at 40 µM: Chlorocebus sabaeus, read-out: Percent Inhibition (%) of endosomal acidification. On the procedure: Inhibition of endosomal acidification was measured using LysoTracker Red DND-99 (ThermoFisher). […] Data were plotted using Prism 9 (GraphPad).

Where [1] appears, read: Vero cells, 40 μM, singlet (n=1).

On to `O=C(CCCN1CCC(O)(c2ccc(Br)cc2)CC1)c1ccc(F)cc1` [BROMPERIDOL], for which the inhibition at 40 µM under setting [1] came out at 50%.
Consider `COc1ccc2cc1Oc1ccc(cc1)C[C@H]1c3cc(c(OC)cc3CCN1C)Oc1c(OC)c(OC)cc3c1[C@H](C2)N(C)CC3` [TETRANDRINE], for which the inhibition at 40 µM under setting [1] stood at 50%.
Turning to `CN(C)CCC=C1c2ccccc2CCc2ccccc21` [AMITRIPTYLINE HYDROCHLORIDE], the inhibition at 40 µM under setting [1] came to 53%.
The same measure, in the same setting: then `C=CC(C1=CC(=O)C=CC1=O)c1ccccc1` (stereo not drawn) [DALBERGIONE], with 85%; and `Oc1ccc(Cl)cc1Cc1cc(Cl)ccc1O` [DICHLOROPHEN], with 86%; and `Cc1ccc(C(C)C)cc2c(C)ccc1-2` [GUAIAZULENE], with 64%.
With `CN1CCC(=C2c3ccccc3CCc3sccc32)CC1.O=C(O)CC(O)C(=O)O` [PIZOTYLINE MALATE], the “Percent Inhibition (%) of endosomal acidification” value (from here on “Percent Inhibition (%)”) under setting [1] stood at 50%.
The same measure, in the same setting: with BITHIONATE SODIUM the figure was 67%.
On to `CCN(CC)CCNc1ccc(CO)c2sc3ccccc3c(=O)c12` [HYCANTHONE], for which the inhibition at 40 µM under setting [1] was 69%.
As for `CN1CCc2c(c3ccccc3n2Cc2ccccc2)C1.CN1CCc2c(c3ccccc3n2Cc2ccccc2)C1.O=S(=O)(O)c1cccc2c(S(=O)(=O)O)cccc12` [MEBHYDROLIN NAPHTHALENESULFONATE], the “Percent Inhibition (%)” value under setting [1] turned out to be 52%.
As for `C[C@@H](O[C@H]1OCCN(Cc2n[nH]c(=O)[nH]2)[C@H]1c1ccc(F)cc1)c1cc(C(F)(F)F)cc(C(F)(F)F)c1` [APREPITANT], under setting [1], the inhibition at 40 µM came to 62%.
On to `Cc1cc(C(C)(C)CC(C)(C)C)ccc1OCCOCC[N+](C)(C)Cc1ccccc1.[Cl-]` [METHYLBENZETHONIUM CHLORIDE], for which the “Percent Inhibition (%)” value under setting [1] is 85%.
As to `COc1cc(NS(C)(=O)=O)ccc1Nc1c2ccccc2nc2ccccc12` [AMSACRINE], the inhibition at 40 µM under setting [1] came out at 87%.
For the molecule `CN(C)CCCN1c2ccccc2Sc2ccc(Cl)cc21` [CHLORPROMAZINE], under setting [1], the inhibition at 40 µM was determined as 65%.
Same read-out and setting: then `CC(=O)c1ccc2c(c1)N(CCCN(C)C)c1ccccc1S2` [ACEPROMAZINE MALEATE], with 67%; and `CN1[C@@H]2CC[C@H]1C[C@@H](OC(c1ccccc1)c1ccccc1)C2` [BENZTROPINE MESYLATE], with 50%.
As for `CC(=O)c1ccc2c(c1)N(CCCN1CCN(CCO)CC1)c1ccccc1S2.O=C(O)/C=C\C(=O)O.O=C(O)/C=C\C(=O)O` [ACETOPHENAZINE MALEATE], the “Percent Inhibition (%)” value under setting [1] is 62%.
For the molecule `CCN(CC)CCCC(C)Nc1c2ccc(Cl)cc2nc2ccc(OC)cc12` (stereo not drawn) [QUINACRINE HYDROCHLORIDE], the inhibition at 40 µM under setting [1] turned out to be 63%.
Consider `CCCCC(CC)CN1CN(CC(CC)CCCC)CC(C)(N)C1` (stereo not drawn) [HEXETIDINE], for which the inhibition at 40 µM under setting [1] was found to be 84%.
The same measure, in the same setting: then `Cc1ccc(Sc2ccccc2N2CCNCC2)c(C)c1` [VORTIOXETINE HYDROBROMIDE], with 63%.
Still for that read-out and setting: then `COc1cc2nc(N3CCN(C(=O)c4ccco4)CC3)nc(N)c2cc1OC` [PRAZOSIN HYDROCHLORIDE], with 76%; and `C1CCC(C(CC2CCCCN2)C2CCCCC2)CC1` (stereo not drawn) [PERHEXILINE MALEATE], with 92%.
For `CCCCCCCCCc1ccc(O)cc1` [4-NONYLPHENOL], the inhibition at 40 µM under setting [1] came out at 79%.
Turning to `Clc1ccc(C(Cn2ccnc2)OCc2c(Cl)cccc2Cl)c(Cl)c1` (stereo not drawn) [I[…]], under setting [1], the inhibition at 40 µM was found to be 79%.
For the molecule CHLOROPHYLLIDE Cu COMPLEX Na SALT, under setting [1], the “Percent Inhibition (%)” value is 77%.
Regarding `COC(=O)CC[C@@H](C)[C@H]1CC[C@H]2[C@@H]3CC[C@@H]4C[C@H](O)CC[C@]4(C)[C@H]3C[C@H](O)[C@]12C` [METHYL DEOXYCHOLATE], the inhibition at 40 µM under setting [1] came out at 63%.
Take `CNCCCN1c2ccccc2CCc2ccccc21` [DESIPRAMINE HYDROCHLORIDE]: the inhibition at 40 µM under setting [1] stood at 50%.
The same measure, in the same setting: then `COc1ccccc1OCCNCC(O)COc1cccc2[nH]c3ccccc3c12` (stereo not drawn) [CARVEDILOL], with 55%; and `CCCCCCCCCCCCCCCC[N+](C)(C)C` [CETRIMONIUM BROMIDE], with 79%; and `OC(CNCC(O)C1CCc2cc(F)ccc2O1)C1CCc2cc(F)ccc2O1` (stereo not drawn) [NEBIVOLOL HYDROCHLORIDE], with 52%.
As to `CNCCCC12CCC(c3ccccc31)c1ccccc12` [MAPROTILINE HYDROCHLORIDE], the inhibition at 40 µM (Vero) was 60%.
Consider `CCCCC/C=C\C/C=C\C/C=C\C/C=C\CCCC(=O)O` [ARACHIDONIC ACID], for which, under setting [1], the inhibition at 40 µM is 64%.
Regarding `CN(C)CCCOc1nn(Cc2ccccc2)c2ccccc12` [BENZYDAMINE HYDROCHLORIDE], under setting [1], the inhibition at 40 µM was 58%.
Same read-out and setting: with `CC(C)NCC(O)COc1cccc2[nH]c3ccccc3c12` (stereo not drawn) [CARAZOLOL] the figure was 54%; with `CCC(C)(C)C(=O)O[C@H]1C[C@@H](C)C=C2C=C[C@H](C)[C@H](CC[C@@H]3C[C@@H](O)CC(=O)O3)[C@H]21` [SIMVASTATIN], 84%.
As to `Cl.N=C(N/N=C/c1ccc(Cl)cc1)N/N=C/c1ccc(Cl)cc1` [ROBENIDINE HYDROCHLORIDE], the “Percent Inhibition (%)” value under setting [1] came to 76%.
With `CCCCC(CC)CNC(=N)NC(=N)NCCCCCCNC(=N)NC(=N)NCC(CC)CCCC` (stereo not drawn) [ALEXIDINE HYDROCHLORIDE], the inhibition at 40 µM under setting [1] was determined as 95%.
On the same count and under the same terms, with `Cc1cc2nc3ccc(N(C)C)cc3[s+]c2cc1N` [TOLONIUM CHLORIDE] the figure was 84%.
With `O=C1c2c(O)ccc(O)c2C(=O)c2c(NCCNCCO)ccc(NCCNCCO)c21` [MITOXANTRONE HYDROCHLORIDE], the inhibition at 40 µM under setting [1] amounted to 80%.
The same measure, in the same setting: then `CC1Cc2ccccc2N1NC(=O)c1ccc(Cl)c(S(N)(=O)=O)c1` (stereo not drawn) [INDAPAMIDE], with 101%; and `CC(C)=CCC[C@]1(C)C=Cc2c(O)c3c(c(CC=C(C)C)c2O1)O[C@]12C(=C[C@@H]4C[C@H]1C(C)(C)O[C@@]2(C/C=C(/C)C(=O)O)C4=O)C3=O` [GAMBOGIC ACID], with 90%.
For `C[n+]1c2cc(N)ccc2cc2ccc(N)cc21.[Cl-]` [ACRIFLAVINIUM HYDROCHLORIDE], the “Percent Inhibition (%)” value under setting [1] came out at 51%.
As for `C[C@H]1CC[C@]2(NC1)O[C@H]1C[C@H]3[C@@H]4CC[C@H]5C[C@@H](O[C@@H]6O[C@H](CO)[C@H](O[C@@H]7O[C@H](CO)[C@@H](O)[C@H](O[C@@H]8OC[C@@H](O)[C@H](O)[C@H]8O)[C@H]7O[C@@H]7O[C@H](CO)[C@@H](O)[C@H](O)[C@H]7O)[C@H](O)[C@H]6O)CC[C@]5(C)[C@H]4CC[C@]3(C)[C@H]1[C@@H]2C` [TOMATINE], the inhibition at 40 µM under setting [1] came to 72%.
In the case of `COC(=O)C1(C)CCCC2(C)c3ccc(O)c(C(C)C)c3CCC12` (stereo not drawn) [TOTAROL-19-CARBOXYLIC ACID, METHYL ESTER], the “Percent Inhibition (%)” value under setting [1] stood at 66%.
Turning to `Cc1c(O)c(O)cc2c1CC=C1[C@@]2(C)CC[C@@]2(C)[C@@H]3C[C@](C)(C(=O)O)CC[C@]3(C)CC[C@]12C` [DIHYDROCELASTROL], the inhibition at 40 µM under setting [1] is 96%.
For the molecule `OCCN1CCN(CCCN2c3ccccc3Sc3ccc(C(F)(F)F)cc32)CC1` [FLUPHENAZINE HYDROCHLORIDE], the inhibition at 40 µM under setting [1] amounted to 78%.
In the case of `CN(C)CCCN1c2ccccc2Sc2ccccc21` [PROMAZINE HYDROCHLORIDE], the inhibition at 40 µM under setting [1] worked out at 75%.
Consider `CCCCCCCCCCCCCCCCC(C(=O)O)C(O)(CC(=O)O)C(=O)O` (stereo not drawn) [AGARIC ACID], for which the “Percent Inhibition (%)” value under setting [1] turned out to be 89%.
